Laboratory results taken from patent US7767665B2, “1,3-benzothiazinone derivatives and use thereof” (Takeda Pharmaceutical Company Limited, priority 2001, dated 2010).

`O=C(O)CSc1cccc(-c2nc(=O)c3ccccc3s2)n1` [Example 276, [6-(4-Oxo-4H-1,3-benzothiazin-2-yl)-2-pyridyl]thioacetic acid] gave a melting point of 258 to 260 °C. For `O=c1nc(-c2cccc(Oc3ccccc3)n2)sc2ccccc12` [Example 41, 2-(6-Phenoxy-2-pyridyl)-4H-1,3-benzothiazine-4-one], the melting point was 160.8 to 161.3 °C. `O=C1c2ccccc2C(=O)N1Cc1cccc(-c2nc(=O)c3ccccc3s2)n1` [Example 236, 2-[[6-(4-Oxo-4H-1,3-benzothiazin-2-yl)-2-pyridyl]methyl]-1H-isoindole-1,3(2H)-dione] gave a melting point of 280.4 to 281.1 °C. Work on `NC(=O)CCc1ccc(-c2nc(=O)c3ccccc3s2)nc1` [Example 329, 3-[6-(4-Oxo-4H-1,3-benzothiazin-2-yl)-3-pyridyl]propanamide] yielded a melting point of 247.5 to 247.8 °C. `CSCCC(=O)NCc1cccc(-c2nc(=O)c3ccccc3s2)n1` [Example 210, 3-(Methylthio)-N-[[6-(4-oxo-4H-1,3-benzothiazin-2-yl)-2-pyridyl]methyl]propanamide] showed a melting point of 191.6 to 192.8 °C. `O=C(O)c1ccc2c(=O)nc(-c3ccccn3)sc2c1` [Example 135, 4-Oxo-2-(2-pyridyl)-4H-1,3-benzothiazine-7-carboxylic acid] showed a melting point of 294.7 to 295.1 °C. `CCOC(=O)C(C)Cc1ccnc(-c2nc(=O)c3ccccc3s2)c1` (stereo not shown) [Example 318, Ethyl 2-methyl-3-[2-(4-oxo-4H-1,3-benzothiazin-2-yl)-4-pyridyl]propionate] gave a melting point of 120.3 to 120.7 °C. In the case of `O=c1nc(-c2c[nH]c3ccccc23)sc2ccccc12` [Example 172, 2-(1H-Indol-3-yl)-4H-1,3-benzothiazine-4-one], the melting point was 276.5 to 277 °C. With `CS(=O)(=O)c1cccc(-c2nc(=O)c3ccccc3s2)n1` [Example 45, 2-(6-Methylsulfonyl-2-pyridyl)-4H-1,3-benzothiazine-4-one] the melting point was 238.2 to 239.5 °C (dec.). Molecule `CC(C)(C)OC(=O)N1CCCC1c1ccnc(-c2nc(=O)c3ccccc3s2)c1` (stereo not shown) [Example 352, tert-Butyl 2-[2-(4-oxo-4H-1,3-benzothiazin-2-yl)-4-pyridyl]-1-pyrrolidinecarboxylate] has a melting point of 194.8 to 195.8 °C. In the case of `O=C(NCCO)c1cccc(-c2nc(=O)c3ccccc3s2)n1` [Example 201, N-(2-Hydroxyethyl)-6-(4-oxo-4H-1,3-benzothiazin-2-yl)-2-pyridinecarboxamide], the melting point was 213.8 to 215.2 °C. Molecule `O=c1nc(-c2cccc(CS(=O)(=O)Cc3ccccc3)n2)sc2ccccc12` [Example 257, 2-[6-[(Benzylsulfonyl)methyl]-2-pyridyl]-4H-1,3-benzothiazine-4-one] has a melting point of 246 to 248 °C. With `O=c1nc(-c2cccc(-n3cccn3)n2)sc2ccccc12` [Example 196, 2-[6-(1H-Pyrazol-1-yl)-2-pyridyl]-4H-1,3-benzothiazine-4-one] the melting point was 253 to 254 °C. With `CSc1cc(CCC(=O)OC(C)(C)C)cc(-c2nc(=O)c3ccccc3s2)n1` [Example 341, tert-Butyl 3-[2-(methylthio)-6-(4-oxo-4H-1,3-benzothiazin-2-yl)-4-pyridyl]propanoate] the melting point was 125.5 to 126.5 °C. Molecule `CN(CC(=O)O)C(=O)CCc1cccc(-c2nc(=O)c3ccccc3s2)n1` [Example 314, (Methyl{3-[6-(4-oxo-4H-1,3-benzothiazin-2-yl)-2-pyridyl]propanoyl}amino)acetic acid] has a melting point of 194.5 to 194.8 °C. `COc1cc2sc(-c3ccccn3)nc(=O)c2cc1OC` [Example 14, 6,7-Dimethoxy-2-(2-pyridyl)-4H-1,3-benzothiazine-4-one] gave a melting point of 236.3 to 237.5 °C. For `CC(C)(C)OC(=O)CCc1cccc(-c2nc(=O)c3ccccc3s2)n1` [Example 78, tert-Butyl 3-[6-(4-oxo-4H-1,3-benzothiazin-2-yl)-2-pyridyl]propanoate], the melting point was 165.8 to 166 °C. Work on `N#Cc1cc(CCC(=O)O)cc(-c2nc(=O)c3ccccc3s2)n1` [Example 356, 3-[2-Cyano-6-(4-oxo-4H-1,3-benzothiazin-2-yl)-4-pyridyl]propanoate] yielded a melting point of 271 to 272.7 °C. `CCNC(=O)NCCc1cccc(-c2nc(=O)c3ccccc3s2)n1` [Example 228, N-Ethyl-N′-[2-[6-(4-oxo-4H-1,3-benzothiazin-2-yl)-2-pyridyl]ethyl]urea] showed a melting point of 240.3 to 242.4 °C. `O=C1c2ccccc2C(=O)N1CCOc1ccc(-c2nc(=O)c3ccccc3s2)cn1` [Example 95] gave a melting point of 212.4 to 212.6 °C. With `CC(C)(C)OC(=O)CCOCCc1cccc(-c2nc(=O)c3ccccc3s2)n1` [Example 334, tert-Butyl 3-[2-(6-(4-oxo-4H-1,3-benzothiazin-2-yl)-2-pyridyl)ethoxy]propanoate] the melting point was 67.7 to 68.5 °C. `CC(C)(C)OC(=O)/C=C/c1ccnc(-c2nc(=O)c3ccccc3s2)c1` [Example 311, tert-Butyl (E)-3-[2-(4-oxo-4H-1,3-benzothiazin-2-yl)-4-pyridyl]acrylate] gave a melting point of 196 to 196.7 °C. `CCN(CC)C(=O)c1ccc(-c2nc(=O)c3ccccc3s2)nc1` [Example 144, N,N-Diethyl-6-(4-oxo-4H-1,3-benzothiazin-2-yl)nicotinamide] gave a melting point of 193.2 to 193.3 °C. `O=c1nc(-c2ccc3c(n2)CCCC3)sc2ccccc12` [Example 139, 2-(5,6,7,8-Tetrahydro-2-quinolyl)-4H-1,3-benzothiazine-4-one] gave a melting point of 232.3 to 232.8 °C. `CS(=O)(=O)NCc1cccc(-c2nc(=O)c3ccccc3s2)n1` [Example 211, N-[[6-(4-Oxo-4H-1,3-benzothiazin-2-yl)-2-pyridyl]methyl]methanesulfonamide] gave a melting point of 188.1 to 189.5 °C. For `CC(C)(C)OC(=O)CNc1nccc(-c2nc(=O)c3ccccc3s2)n1` [Example 295, tert-Butyl {[6-(4-oxo-4H-1,3-benzothiazin-2-yl)-2-pyrimidinyl]amino}acetate], the melting point was 247 to 248 °C. Work on `O=c1nc(-c2ccccn2)sc2ncccc12` [Example 22, 2-(2-Pyridyl)-4H-pyrido[3,2-e][1,3]thiazine-4-one] yielded a melting point of 234.7 to 234.9 °C. Work on `O=c1nc(-c2cccc(CN3CCN(c4ccc(F)cc4)CC3)n2)sc2ccccc12` [Example 265, 2-(6-{[4-(4-Fluorophenyl)-1-piperazinyl]methyl}-2-pyridyl)-4H-1,3-benzothiazine-4-one] yielded a melting point of 156 to 157 °C. `O=C(NCCc1cccc(-c2nc(=O)c3ccccc3s2)n1)c1ccccc1` [Example 224, N-[2-[6-(4-Oxo-4H-1,3-benzothiazin-2-yl)-2-pyridyl]ethyl]benzamide] gave a melting point of 201.7 to 202.6 °C. For `O=C(O)CNC(=O)CCc1cccc(-c2nc(=O)c3ccccc3s2)n1` [Example 312, ({3-[6-(4-Oxo-4H-1,3-benzothiazin-2-yl)-2-pyridyl]propanoyl}amino)acetic acid], the melting point was 219.2 to 219.8 °C. `Cc1cc(CCC(=O)OC(C)(C)C)nc(-c2nc(=O)c3ccc(Cl)cc3s2)c1` [Example 190, tert-Butyl 3-[6-(7-chloro-4-oxo-4H-1,3-benzothiazin-2-yl)-4-methyl-2-pyridyl]propanoate] gave a melting point of 162.3 to 163 °C. For `O=c1nc(-c2cccc(N3CCCCC3)n2)sc2ccccc12` [Example 42, 2-[6-(1-Piperidyl)-2-pyridyl]-4H-1,3-benzothiazine-4-one], the melting point was 178.7 °C (dec.). Molecule `C[S+]([O-])c1nccc(-c2nc(=O)c3ccccc3s2)n1` (stereo not shown) [Example 285, 2-[2-(Methylsulfinyl)-6-pyrimidinyl]-4H-1,3-benzothiazine-4-one] has a melting point of 250.5 to 252 °C. `C[S+]([O-])c1cc(-c2nc(=O)c3ccccc3s2)ccn1` (stereo not shown) [Example 263, 2-[2-(Methylsulfinyl)-4-pyridyl]-4H-1,3-benzothiazine-4-one] gave a melting point of 172.5 to 174 °C. `CNc1cccc(-c2nc(=O)c3ccccc3s2)n1` [Example 109, 2-(6-Methylamino-2-pyridyl)-4H-1,3-benzothiazine-4-one] showed a melting point of 206.9 to 208 °C. Molecule `Cc1ccc2c(=O)nc(-c3cccc(CCC(=O)O)n3)sc2c1` [Example 176, 3-[6-(7-Methyl-4-oxo-4H-1,3-benzothiazin-2-yl)-2-pyridyl]propionic acid] has a melting point of 221.9 to 222.5 °C. With `O=c1nc(-c2cccc(CCP(=O)(O)O)n2)sc2ccccc12` [Example 246] the melting point was 235.3 to 237.2 °C. Molecule `O=c1nc(-c2cccc(CCc3nnn[nH]3)n2)sc2ccccc12` [Example 305, 2-{6-[2-(1H-1,2,3,4-tetrazol-5-yl)ethyl]-2-pyridyl}-4H-1,3-benzothiazine-4-one] has a melting point of 156.6 to 157 °C. `O=c1nc(-c2cccc(Sc3ncccn3)n2)sc2ccccc12` [Example 270, 2-[6-(2-Pyrimidinylthio)-2-pyridyl]-4H-1,3-benzothiazine-4-one] gave a melting point of 245.2 to 245.8 °C. Molecule `C[S+]([O-])c1ccnc(-c2nc(=O)c3ccccc3s2)c1` (stereo not shown) [Example 299, 2-[4-(Methylsulfinyl)-2-pyridyl]-4H-1,3-benzothiazine-4-one] has a melting point of 205 to 206 °C. `CCN(CC)C(=O)NCCc1cccc(-c2nc(=O)c3ccccc3s2)n1` [Example 230, N,N-Diethyl-N′-[2-[6-(4-oxo-4H-1,3-benzothiazin-2-yl)-2-pyridyl]ethyl]urea] gave a melting point of 174.9 to 175.6 °C. With `CC(=O)N1CCCC1c1ccnc(-c2nc(=O)c3ccccc3s2)c1` (stereo not shown) [Example 351, 2-[4-(1-Acetyl-2-pyrrolidinyl)-2-pyridyl]-4H-1,3-benzothiazine-4-one] the melting point was 206.2 to 207.4 °C. Work on `CSCc1cccc(-c2nc(=O)c3ccccc3s2)n1` [Example 167, 2-(6-Methylthiomethyl-2-pyridyl)-4H-1,3-benzothiazine-4-one] yielded a melting point of 151.5 to 153 °C. In the case of `O=c1nc(-c2cccc(CP(=O)(O)O)n2)sc2ccccc12` [Example 244], the melting point was 254 °C (dec.). For `O=c1nc(-c2cccs2)sc2ccccc12` [Example 2, 2-(2-Thienyl)-4H-1,3-benzothiazine-4-one], the melting point was 157.7 to 158.2 °C. `O=c1nc(-c2cccc(S(=O)(=O)Cc3ccccc3)n2)sc2ccccc12` [Example 161, 2-[6-(Benzylsulfonyl)-2-pyridyl]-4H-1,3-benzothiazine-4-one] showed a melting point of 217 to 218 °C.
